The values below come from ChEMBL document CHEMBL5113392, “Novel hybrid pyrrolidinedione-thiazolidinones as potential anticancer agents: Synthesis and biological evaluation” (Eur J Med Chem, 2022).

The source made the active and inactive calls. The calls are words filed in the database; no cut-off is given here.

The test system of series [1] is HCT-116. In words: Induction of DNA damage in human HCT-116 […] assessed as tail DNA at 1 uM incubated for 2 hrs in dark by Comet assay. Format: functional.
In series [2] the test system is Salmon testes DNA. In words: Binding affinity to double stranded salmon sperm DNA assessed as increase in DNA oxidation level by measuring net change in absorbance at 10 uM incubated for 1 hr by UV based spectroscopic method. In kind it is nucleic-acid assay. The following applies: Salmo salar.
The test system of series [3] is KM12. In words: Anticancer activity against human KM12 cells assessed as total growth inhibition incubated for 48 hrs by SRB assay. In kind it is functional.
Series [4] has as its system COLO 205. Kind of series: Anticancer activity against human COLO 205 cells assessed as growth inhibition incubated for 48 hrs by SRB assay. In kind it is functional. Background: Sulforhodamine B stains cellular protein and so reports cell mass.
The subject of series [5] is HCT-116. In words: Induction of DNA damage in human HCT-116 cells assessed as olive tail moment at 1 uM incubated for 2 hrs by alkaline Comet assay. In kind it is functional.
Series [6] relates to A549. In words: Anticancer activity against human A549 cells assessed as growth inhibition incubated for 48 hrs by SRB assay. Format: functional.
In series [7] the test system is DU-145. In words: Anticancer activity against human DU-145 cells assessed as total growth inhibition incubated for 48 hrs by SRB assay. Format: functional.
The test system of series [8] is Jurkat. In words: Induction of apoptosis in human Jurkat cells assessed as increase in Bax level at 1.5 uM for 24 hrs by Western blot analysis. In kind it is functional, cell-based. For orientation: In western blotting, separated proteins are transferred to a membrane and probed.
The subject of series [9] is Jurkat. Kind of series: Induction of DNA damage in human Jurkat cells assessed as proapoptotic inter-nucleosomal fragmentation at 1.5 uM for 24 hrs by Agarose gel electrophoresis analysis. In kind it is functional, cell-based.
For series [10], the system named is Jurkat. Kind of series: Induction of DNA damage in human Jurkat cells assessed as tail DNA at 1.5 uM incubated for 24 hrs by alkaline Comet assay. In kind it is functional.
Series [11] has as its system Jurkat. Kind of series: Induction of apoptosis in human Jurkat cells assessed as increase in cleaved capase-3 level at 1.5 uM for 24 hrs by Western blot analysis. In kind it is functional, cell-based.
The test system of series [12] is CCRF-CEM. Kind of series: Anticancer activity against human CCRF-CEM cells assessed as lethality incubated for 48 hrs by SRB assay. In kind it is functional. The following applies: read-out: LC50 (the source's name).
Series [13] has as its system 786-0. Kind of series: Anticancer activity against human 786-0 cells assessed as lethality incubated for 48 hrs by SRB assay. Format: functional. The following applies: read-out: LC50 (the source's name).
In series [14] the test system is Lymphocyte. In words: Induction of DNA damage in mitogen activated human peripheral blood lymphocytes assessed as tail DNA at 1.5 uM incubated for 24 hrs by alkaline Comet assay. Format: toxicity, cell-based.
Series [15] deals with SW-620. In words: Anticancer activity against human SW-620 cells assessed as total growth inhibition incubated for 48 hrs by SRB assay. Format: functional.
Series [16] concerns SK-MEL-5. In words: Anticancer activity against human SK-MEL-5 cells assessed as lethality incubated for 48 hrs by SRB assay. In kind it is functional. The following applies: read-out: LC50 (the source's name).
Series [17] concerns HCT-116. Kind of series: Induction of DNA damage in human HCT-116 cell lysate assessed as olive tail moment at 1 uM incubated for 2 hrs in dark by Comet assay. Format: functional.
The test system of series [18] is Jurkat. In words: Induction of DNA damage in human Jurkat cells assessed as olive tail moment at 1.5 uM incubated for 24 hrs by alkaline Comet assay. In kind it is functional.
Series [19] deals with KM12. In words: Anticancer activity against human KM12 cells assessed as inhibition of cell growth at 10 uM incubated for 48 hrs by SRB assay. In kind it is functional. The following applies: KM12, 48 h, values are per cent of control.
Series [20] has as its system Lymphocyte. In words: Induction of DNA damage in mitogen activated human peripheral blood lymphocytes assessed as olive tail moment at 1.5 uM incubated for 24 hrs by alkaline Comet assay. Format: toxicity, cell-based.
Series [21] relates to ACHN. In words: Anticancer activity against human ACHN cells assessed as lethality incubated for 48 hrs by SRB assay. In kind it is functional. The following applies: read-out: LC50 (the source's name).
Series [22] deals with HCT-116. In words: Induction of DNA damage in human HCT-116 cells assessed as tail DNA at 1 uM incubated for 2 hrs by alkaline Comet assay. Format: functional.
Series [23] deals with CAKI-1. Kind of series: Anticancer activity against human CAKI-1 cells assessed as inhibition of cell growth at 10 uM incubated for 48 hrs by SRB assay. In kind it is functional. The following applies: CAKI-1, 48 h, values are per cent of control.
For series [24], the system named is SK-MEL-5. In words: Anticancer activity against human SK-MEL-5 cells assessed as total growth inhibition incubated for 48 hrs by SRB assay. In kind it is functional.
Series [25] relates to Salmon testes DNA. Kind of series: Binding affinity to single stranded salmon sperm DNA assessed as increase in DNA oxidation level by measuring net change in absorbance at 10 uM incubated for 1 hr by UV based spectroscopic method. In kind it is nucleic-acid assay. The following applies: Salmo salar.
Series [26] has as its system Jurkat. In words: Induction of apoptosis in human Jurkat cells assessed as decrease in Bcl-2 level at 1.5 uM for 24 hrs by Western blot analysis. In kind it is functional, cell-based.
The subject of series [27] is OVCAR-5. Kind of series: Anticancer activity against human OVCAR-5 cells assessed as lethality incubated for 48 hrs by SRB assay. In kind it is functional. The following applies: read-out: LC50 (the source's name).
The test system of series [28] is Jurkat. In words: Induction of DNA damage in human Jurkat cells assessed as tail DNA at 3.5 uM incubated for 24 hrs by alkaline Comet assay. In kind it is functional.
Series [29] has as its system NCI-H522. In words: Anticancer activity against human NCI-H522 cells assessed as inhibition of cell growth at 10 uM incubated for 48 hrs by SRB assay. Format: functional. The following applies: NCI-H522, 48 h, values are per cent of control.
For series [30], the system named is Jurkat. In words: Induction of apoptosis in human Jurkat cells assessed as increase in cleaved capase-3 level at 3.5 uM for 24 hrs by Western blot analysis. Format: functional, cell-based.
Series [31] relates to Jurkat. In words: Induction of apoptosis in human Jurkat cells assessed as increase in Bax level at 3.5 uM for 24 hrs by Western blot analysis. Format: functional, cell-based.
For series [32], the system named is Jurkat. Kind of series: Induction of DNA damage in human Jurkat cells assessed as olive tail moment at 3.5 uM incubated for 24 hrs by alkaline Comet assay. Format: functional.
For series [33], the system named is Jurkat. Kind of series: Induction of DNA damage in human Jurkat cells assessed as proapoptotic inter-nucleosomal fragmentation at 3.5 uM for 24 hrs by Agarose gel electrophoresis analysis. Format: functional, cell-based.
The subject of series [34] is Lymphocyte. In words: Induction of DNA damage in mitogen activated human peripheral blood lymphocytes assessed as olive tail moment at 3.5 uM incubated for 24 hrs by alkaline Comet assay. In kind it is toxicity, cell-based.
Series [35] deals with Lymphocyte. In words: Induction of DNA damage in mitogen activated human peripheral blood lymphocytes assessed as tail DNA at 3.5 uM incubated for 24 hrs by alkaline Comet assay. In kind it is toxicity, cell-based.
The subject of series [36] is Jurkat. In words: Induction of apoptosis in human Jurkat cells assessed as decrease in Bcl-2 level at 3.5 uM for 24 hrs by Western blot analysis. Format: functional, cell-based.
In series [37] the test system is OVCAR-3. In words: Anticancer activity against human OVCAR-3 cells assessed as inhibition of cell growth at 10 uM incubated for 48 hrs by SRB assay. In kind it is functional. The following applies: OVCAR-3, 48 h, values are per cent of control.

On to `O=C1CC(N2C(=O)/C(=C/C(Cl)=C/c3ccc([N+](=O)[O-])cc3)SC2=S)C(=O)N1c1ccc(O)cc1` (stereo not given), for which the Activity was determined as 13.1% in [1]; 9.84% in series [5]; 53.4% in series [10]; 2.92% in series [14]; 3.05% in series [17]; 8.63% in [18]. Also, the results for the Activity in series [20] and in series [22] were 0.28% and 26.5%, respectively. The outcome in [2], in [8], in [9], in series [11], in series [25] and in series [26] was Active. Also, the total growth inhibition concentration (TGI) – broadly, the concentration giving total growth inhibition – in series [3] amounted to 4.64 µM; in [7], 3.37 µM; in series [15], 2.28 µM; in [24], 3.66 µM. For the same compound, the results for the GI50 in series [4] and in series [6] were 1.83 µM and 3.11 µM, respectively. Further, the CC50 in series [12] was over 100 µM; in series [13], 25.5 µM; in series [16], 6.97 µM; in [21], 5.59 µM; in series [27], 7.16 µM. Further, the growth, % of control at 10 µM is -72.4% in series [19] and -71.4% in [23].
With `O=C1CC(N2C(=O)/C(=C/C(Cl)=C/c3ccc([N+](=O)[O-])cc3)SC2=S)C(=O)N1c1ccc(Cl)cc1` (stereo not given), the Activity in [28] stood at 48.35%; in series [32] it was 18.1%; in series [34], 0.86%; in series [35], 4.25%. In addition, the growth, % of control at 10 µM in series [29] was -26.4%; in series [37], -35.4%. Moreover, the result in series [30], in [31], in series [33] and in series [36] was Active. Also, the GI50 (as a rule, the concentration at which growth is held to half of that of the control) in [4] was 1.4 µM. Moreover, the CC50 in series [12] is over 100 µM. For the same compound, in series [15], the TGI worked out at 3.9 µM.
